The target of assay [1] is target 13-mer (GP-1), amino terminus of a membrane glycoprotein. The assay can be described thus: HPLAC zonal elution on column with immobilized target 13-mer (GP-1). Format: binding, rat. The settings on record: for binding constants (in words): text summary of Table 4; for Km: zonal elution, immobilized GP-1, 100 mM NH4OAc pH 5.7, flow rate 1.0 ml/min, extrapolated to [P]=0, read-out: Equilibrium binding constant (dissociation constant) KM/P. As to the method: (§1) The recognition of the target peptide by the anti-sense peptides was evaluated by high performance affinity chroma tography (I. Chaiken, Ed., "Analytical Affinity Chromatography," CRC Press, Boca Raton, 1987). This system was chosen because it allows direct measurement of molecular interactions and it is not limited by either molecular size or by the need for a specialized detection system. The target 13-mer (GP-1) was immobilized on an affinity support system. The binding properties to the target peptide were evaluated by zonal elution methods (FIG. III) (Y. Shai et al, Biochem., 26:669 (1987)). The anti-sense recognition peptides were eluted on the sense column and the retardation volume of the peptide (V) was compared to the column void volume (Vo). Equilibrium binding constants were determined by loading varying amounts of the anti-sense peptides on the column and employing the equation: [formula] where KM/P represents the dissociation constant for the binding process,
MT is the amount of target peptide immobilized and
[P]represents the amount of recognition peptide eluted E. Swaisgood et al, Biochem., 25:4148 (1986)).
The KM/P values are obtained subsequent to extrapolation to [P]=0.
Values were obtained by zonal elution on a column with immobilized target
peptide (GP1) equilibrated with 100 mM NH4 OAc, pH = 5.7 with column
flow rate of 1.0 ml/min.

Assay [2] concerns the target putative ATP binding region of the raf (raf 357-376) (Rattus norvegicus, UniProt P11345). Put plainly: HPLAC on immobilized raf ATP binding region. As to the method: The values of the dissociation constants (KM/P) are obtained in 0.1 M NH4 CH3 COO pH 5.7.
as §1, with “The anti-sense recognition peptides were eluted on the sense column and the retardation volume of the peptide (V) was compared to the column void volume (Vo).” left out
In order to evaluate the general applicability of the complementary scoring program, a comparison was made between the DNA derived anti-sense peptide and a computer generated recognition-peptide. […] To compare the relative affinities of the DNA derived anti-sense peptide (FAR-[…]) and the computer generated recognition peptide (FARCG--[…]), the raf ATP binding region ([…]) was immobilized on an affinity support and the two anti-sense peptides evaluated by HPLAC techniques.

Ends that are not written are not given here.

For the sequence AAQHGGGLGVQVE [CODON-1, AAQHGGGLGVQVE], in assay [1], the “binding constants (in words)” value is listed as “millimolar range” and the Km was 920 µM.

As for AAQHGRGFGIQIE [CODON-2], in assay [1], the “binding constants (in words)” value is on record as “millimolar range” and the Km is 460 µM.

Consider FHGHISMPFAFVYSSKAAAA [FAR-CG], for which, in assay [2] (immobilized raf ATP binding region GSGSFGTVYKGKWHGDVAVK, 0.1 M NH4CH3COO pH 5.7, read-out: Equilibrium binding constant KM/P), the Km is 8 µM. The “fold higher affinity for the target peptide compared to the DNA derived anti-sense peptide” value in assay [2] (relative to FAR) is on record as ~50 fold.

The values above are taken from patent US5081584A, “Computer-assisted design of anti-peptides based on the amino acid sequence of a target peptide” (United States of America, priority 1989, dated 1992).
